Source: patent publication US20080118980A1, “Estrogen Enhancing Differentiation of Human Mesenchymal Stromal Cells and Adipose-derived Stromal Cells” (The Board of Trustees of the University of Illinois,, priority 2006, published 2008)

Test system: human bone marrow mesenchymal stem cells (MSCs)
Test: Proliferation of human bone marrow MSCs in basic medium with E2 or E3 (MTS, Example 3)
Assay type: cell-based
Method: This study investigates the mitogenic effects of estrogen receptor ligands on human bone marrow MSCs that is not contacted with osteogenic or adipogenic medium. Purified human bone marrow mesenchymal stem cells (MSCs) were purchased commercially. MSCs were respectively exposed to basic medium (DMEM+10% FBS+1% antibiotics), and basic medium supplement with 10^−6 and 10^−9 M 17-β estradiol (E2) and estriol (E3) for approximately one week. Then, various cells were plated into 96-well plates in 500 cells/well and continued to be exposed to the media. After 4 days, cell densities were measured by MTS methods and compared to initial densities. FIG. 8 illustrates the increase of the number of MSCs after being treated with basic medium and basic medium supplemented with E2 or E3.

Question: Which “cell proliferation (MTS assay and cell counting)” value (10^−6 and 10^−9 M, about one week then 4 days in 96-well plates, FIG. 8) does the source give for C[C@]12CC[C@@H]3c4ccc(O)cc4CC[C@H]3[C@@H]1C[C@@H](O)[C@@H]2O [E3, estriol] here?
Answer: Its value is “greatly increased”.

Question: And the “differentiation capabilities (adipogenic and osteogenic) of modulated MSCs” value (vs controls)?
Answer: Its value is “maintain their differentiation capabilities”.
